In US11207312B2, “Metallo-beta-lactamase inhibitors and methods of use thereof” (priority 2017, dated 2021):
pIC50: −log10 of the molar value.

Legend:
NDM-1 = NDM-1 (Klebsiella pneumoniae, UniProt C7C422); assay: biochemical; assay type: biochemical; conditions: CCF2-FA fluorescence assay, 2 hours at 25° C.
Method in brief: (§1)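 In 100 mM phosphate pH 7 containing Tween-20 and ZnSO4, NDM-1 (1 pM), IMP-1 (2 pM) or VIM-1 (30 pM) hydrolysed 1.25 μM CCF2-FA over 2 hours at 25° C with inhibitor present. Readout was 405/460 nm fluorescence.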

IMP-1 = IMP-1 (Serratia marcescens, UniProt P52699); assay: biochemical; conditions: CCF2-FA fluorescence assay, 2 hours at 25° C.; read-out: IMP1 IC50
Chain of IMP-1 (P52699 whole entry, looked up, species assumed): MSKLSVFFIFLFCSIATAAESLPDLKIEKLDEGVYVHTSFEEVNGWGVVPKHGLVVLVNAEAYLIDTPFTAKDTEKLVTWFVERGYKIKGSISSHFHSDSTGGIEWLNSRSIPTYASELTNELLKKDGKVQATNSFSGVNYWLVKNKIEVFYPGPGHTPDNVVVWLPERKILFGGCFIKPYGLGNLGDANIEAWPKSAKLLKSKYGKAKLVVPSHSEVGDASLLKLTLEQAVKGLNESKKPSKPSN
Method in brief: as §1

VIM-1 = VIM-1 (Pseudomonas aeruginosa (strain ATCC 15692 / DSM 22644 / CIP 104116 / JCM 14847 / LMG 12228 / 1C / PRS 101 / PAO1), UniProt A0A0F7KYQ8); assay: biochemical; conditions: CCF2-FA fluorescence assay, 2 hours at 25° C.; read-out: VIM1 IC50
Method in brief: as §1

VIM-2 = VIM-2 (Escherichia coli, UniProt Q5U7L7); assay: biochemical; conditions: CCF2-FA fluorescence assay; read-out: VIM2 IC50
[1] = tested on: Escherichia coli expressing NDM-1 (CLB30016); assay type: cell-based; conditions: with imipenem 1 μg/ml; 95% inhibition of bacterial growth
Method in brief: (§2)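 Colonies from sheep-blood agar plates are resuspended in saline, then diluted 1:100 in 1.1× CAMHB. Bacteria receive imipenem (1 μg/ml) and test compound, then incubate 22–24 h at 35 °C. Potentiation is reported as MITC95 from absorbance.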

[2] = tested on: Klebsiella pneumoniae expressing VIM-1 (IHMA599644); assay type: cell-based; conditions: with imipenem 1 μg/ml; 95% inhibition of bacterial growth
Method in brief: as §2

[3] = tested on: Serratia marcescens expressing IMP-1 (CL5741); assay type: cell-based; conditions: with imipenem 1 μg/ml; 95% inhibition of bacterial growth
Method in brief: as §2

[4] = tested on: P. aeruginosa MB9798 (efflux+, IMP-1 plasmid); conditions: for MB9798 MITC95 P. aeruginosa uM Efflux WT: efflux + (MB9798) strain, imipenem at 2 μg/mL, in the presence of a class A, C, D serine β-lactamase inhibitor closely related to relebactam; for Efflux ratio: fold difference between efflux+ (MB9798) and efflux− (MB9799) strains
Method in brief: (§3)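 PAO1-derived isogenic pair (oprD+, inducible AmpC), efflux+ MB5919 or efflux− MB5890 parent, carrying an electroporated IMP-1 plasmid from a clinical isolate. Microbroth MIC with fixed imipenem and/or ceftazidime (usually CLSI breakpoint) plus fixed class A/C inhibitor; MBL inhibitor serially titrated, concentration restoring susceptibility recorded.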

[5] = tested on: P. aeruginosa MB9799 (efflux-, IMP-1 plasmid); assay type: cell-based, Pseudomonas aeruginosa; conditions: efflux − (MB9799) strain; imipenem at 2 μg/mL; in the presence of a class A, C, D serine β-lactamase inhibitor closely related to relebactam
Method in brief: as §3

Chain of NDM-1 (C7C422 whole entry, looked up, species assumed): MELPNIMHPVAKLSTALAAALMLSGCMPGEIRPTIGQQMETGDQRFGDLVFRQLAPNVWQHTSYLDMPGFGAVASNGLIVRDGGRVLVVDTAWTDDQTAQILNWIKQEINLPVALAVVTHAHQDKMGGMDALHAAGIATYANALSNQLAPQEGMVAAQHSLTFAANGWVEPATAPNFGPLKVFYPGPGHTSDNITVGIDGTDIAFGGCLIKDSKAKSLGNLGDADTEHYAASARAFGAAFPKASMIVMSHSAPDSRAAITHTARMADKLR

| SMILES | pIC50 (NDM-1) | pIC50 (IMP-1) | pIC50 (VIM-1) | pIC50 (VIM-2) | CLB30016 E. coli MITC95 NDM [1] | IHMA599644 K. pneumoniae MITC95 VIM [2] | CL5741 S. marcescens MITC95 IMP [3] | MB9798 MITC95 P. aeruginosa uM Efflux WT [4] | Efflux ratio [4] | MB9799 MITC95 P. aeruginosa uM Efflux Mutant [5] |
| --- | --- | --- | --- | --- | --- | --- | --- | --- | --- | --- |
| NS(=O)(=O)c1c(S(=O)(=O)N[C@@H]2CCNC2)ccc(N2CCC(O)CC2=O)c1-c1nn[nH]n1 (stereo partly drawn) [Example 159, 4-(4-hydroxy-2-oxopiperidin-1-yl)-N1-((R)-pyrrolidin-3-yl)-3-(2H-tetrazol-5-yl)benzene-1,2-disulfonamide] | 9.21 | 7.80 | 9.42 | 8.58 | 1.56 µM | 6.25 µM | 0.78 µM | 6.25 µM | 4.00 | 1.56 µM |
| NC[C@@H](O)CNS(=O)(=O)c1ccc(N2CCN(C(CO)CO)CC2)c(-c2nn[nH]n2)c1S(N)(=O)=O [Example 160, (R)-N1-(3-amino-2-hydroxypropyl)-4-(4-(1,3-dihydroxypropan-2-yl)piperazin-1-yl)-3-(2H-tetrazol-5-yl)benzene-1,2-disulfonamide] | 8.94 | 8.92 | 8.87 | 8.26 | 0.78 µM | 1.56 µM | 0.20 µM | 1.56 µM | 1.00 | 1.56 µM |
| NC[C@@H](O)CNS(=O)(=O)c1ccc(N2C[C@H]3CNC[C@H]3C2)c(-c2nn[nH]n2)c1S(N)(=O)=O [Example 161, N1-((R)-3-amino-2-hydroxypropyl)-4-((3aR,6aS)-hexahydropyrrolo[3,4-c]pyrrol-2(1H)-yl)-3-(2H-tetrazol-5-yl)benzene-1,2-disulfonamide] | 7.91 | 7.34 | 9.05 | 7.83 | 1.56 µM | 1.56 µM | 3.13 µM | 12.50 µM | 2.00 | 6.25 µM |
| NS(=O)(=O)c1c(S(=O)(=O)N[C@@H]2CCNC2)ccc(N2CCN(CCO)CC2)c1-c1nn[nH]n1 [Example 162, (R)-4-(4-(2-hydroxyethyl)piperazin-1-yl)-N1-(pyrrolidin-3-yl)-3-(2H-tetrazol-5-yl)benzene-1,2-disulfonamide] | 8.92 | 8.66 | 8.61 | 8.20 | 0.29 µM | 1.95 µM | 0.20 µM | 2.34 µM |  | 1.17 µM |
| COC(=O)C1CCN(c2ccc(S(=O)(=O)N[C@@H]3CCNC3)c(S(N)(=O)=O)c2-c2nn[nH]n2)CCN1.Cl (stereo partly drawn) [Example 164, Methyl 1-(4-(N-((R)-pyrrolidin-3-yl)sulfamoyl)-3-sulfamoyl-2-(2H-tetrazol-5-yl)phenyl)-1,4-diazepane-5-carboxylate hydrochloride] | 9.20 | 9.27 | 9.92 | 9.16 | 0.39 µM | 3.13 µM | 1.56 µM | 6.25 µM | 2.00 | 3.13 µM |
| NC(=O)C1CCN(c2ccc(S(=O)(=O)N[C@@H]3CCNC3)c(S(N)(=O)=O)c2-c2nn[nH]n2)CCN1 (stereo partly drawn) [Example 165, 1-(4-(N-((R)-pyrrolidin-3-yl)sulfamoyl)-3-sulfamoyl-2-(2H-tetrazol-5-yl)phenyl)-1,4-diazepane-5-carboxamide] | 8.92 | 8.61 | 9.42 | 8.63 | 0.20 µM | 1.56 µM | 0.20 µM | 1.56 µM | 2.00 | 0.78 µM |
| NS(=O)(=O)c1c(S(=O)(=O)N[C@@H]2CCNC2)ccc(N2CCC(c3c[nH]cn3)CC2)c1-c1nn[nH]n1 [Example 166, (R)-4-(4-(1H-imidazol-4-yl)piperidin-1-yl)-N1-(pyrrolidin-3-yl)-3-(2H-tetrazol-5-yl)benzene-1,2-disulfonamide] | 9.92 | 9.66 | 10.05 | 9.28 | 0.78 µM | 1.56 µM | 0.78 µM | 0.78 µM | 1.00 | 0.78 µM |
| NCCNS(=O)(=O)C1CCN(c2ccc(S(=O)(=O)N[C@@H]3CCNC3)c(S(N)(=O)=O)c2-c2nn[nH]n2)CC1 [Example 167, (R)-4-(4-(N-(2-aminoethyl)sulfamoyl)piperidin-1-yl)-N1-(pyrrolidin-3-yl)-3-(2H-tetrazol-5-yl)benzene-1,2-disulfonamide] | 9.60 | 9.60 | 10.30 | 9.40 | 1.17 µM | 1.56 µM | 1.17 µM | 0.78 µM | 1.00 | 0.78 µM |
| NC[C@H](N)CNS(=O)(=O)c1ccc(N2CCC(c3c[nH]cn3)CC2)c(-c2nn[nH]n2)c1S(N)(=O)=O [Example 168, (S)-4-(4-(1H-imidazol-4-yl)piperidin-1-yl)-N1-(2,3-diaminopropyl)-3-(2H-tetrazol-5-yl)benzene-1,2-disulfonamide] | 9.77 | 9.62 | 10.15 | 9.32 | 0.39 µM | 1.56 µM | 0.78 µM | 1.56 µM | 2.00 | 0.78 µM |
| NC[C@@H](O)CNS(=O)(=O)c1ccc(N2CCC(c3c[nH]cn3)CC2)c(-c2nnn[nH]2)c1S(N)(=O)=O [Example 169, (R)-4-(4-(1H-imidazol-4-yl)piperidin-1-yl)-N1-(3-amino-2-hydroxypropyl)-3-(1H-tetrazol-5-yl)benzene-1,2-disulfonamide] | 9.64 | 9.59 | 10.00 | 9.40 | 0.39 µM | 2.34 µM | 1.17 µM | 0.78 µM | 1.00 | 0.78 µM |
| NCC1=CCN(c2ccc(S(=O)(=O)NC[C@H](O)CN)c(S(N)(=O)=O)c2-c2nn[nH]n2)C1.O=C(O)C(F)(F)F.O=C(O)C(F)(F)F [Example 170] | 7.94 | 7.81 | 8.25 | 7.37 | 1.56 µM | 1.56 µM | 1.56 µM | 6.25 µM | 4.00 | 1.56 µM |
